Measurements published in patent US9808444B2 (BioHealthonomics Inc., priority 2012, dated 2017).

How the values were obtained:
migraine attacks [1] = settings: cited from earlier work
[2] = test system: headache / migraine attack; settings: cited from earlier work
migraine attacks [3] = settings: subcutaneous, twice weekly, 1 μg (0.1 mL) increasing to 10 μg (1.0 mL) over 12 weeks; cited from earlier work
migraine headaches = settings: one subject, subcutaneous, Table 5 regimen
migraine attacks [4] = settings: subcutaneous 1-10 ng twice a week vs oral sodium valproate 500 mg daily, cited from earlier work
[5] = doses of 1 to 3 ng twice a week, P<0.0001
[6] = migraine subjects, intravenous, 0.5 mg/kg per minute for 20 min

CNCCc1c[nH]cn1 [N^α-methylhistamine]
adverse side effects (migraine attacks [1]; doses greater than 3 ng): intense headache
duration of migraine attacks (migraine attacks [1]; [5]): significantly reduced
frequency of migraine attacks (migraine attacks [1]; [5]): significantly reduced
intensity of migraine attacks (migraine attacks [1]; [5]): significantly reduced
need for rescue analgesics (migraine attacks [1]; [5]): significantly reduced

COc1ccc(CN(CCN(C)C)c2ccccn2)cc1 [mepyramine]
effect of pre-treatment on histamine-induced headache and delayed migraine attack ([2]; pre-treatment before intravenous histamine in migraine subjects): abolished

NCCc1c[nH]cn1 [histamine, 2-(1H-imidazol-4-yl)ethanamine]
decrease in length of migraine attacks (migraine attacks [3]): 45%
decrease in pain intensity (migraine attacks [3]): 51%
decrease in painkiller use (migraine attacks [3]): 52%
reduction of headache frequency (migraine attacks [3]): 50%
intensity of migraines (migraine headaches): drastically reduced
quality of life (migraine headaches): Drastically improved
side effects associated with the regimen (migraine headaches): no histamine-induced headaches
frequency of migraines after the dosing regimen (migraine headaches; before the regimen about 3-5 migraines per week): ~1 migraine every 2 months
side effect after the infusion [2, 6]: delayed migraine attack
side effect during the infusion [2, 6]: immediate headache
MIDAS versus sodium valproate (migraine attacks [4]): No difference
frequency of attacks versus sodium valproate (migraine attacks [4]): No difference
analgesic intake versus sodium valproate (migraine attacks [4]; weeks 4, 8, 12, P<0.001): significantly greater reduction
intensity of migraine attacks versus sodium valproate (migraine attacks [4]; weeks 4, 8, 12, P<0.001): significantly greater reduction
